Assay results: article PMC7464027, “Design of Curcumin and Flavonoid Derivatives with Acetylcholinesterase and Beta-Secretase Inhibitory Activities Using in Silico Approaches” (Molecules, 2020)

Legend:
beta-secretase (BACE-1) = target: T1, beta-secretase (BACE-1) (Homo sapiens, UniProt P56817); assay: fluorescent BACE-1 activity detection kit (Sigma-Aldrich); assay type: biochemical
T1 construct: gene BACE1

[1] = target: Acetylcholinesterase (AChE) (Electrophorus electricus, UniProt O42275); assay: Ellman's assay with electric eel AChE; assay type: biochemical
Acetylcholinesterase (AChE), sequence (O42275 24-633): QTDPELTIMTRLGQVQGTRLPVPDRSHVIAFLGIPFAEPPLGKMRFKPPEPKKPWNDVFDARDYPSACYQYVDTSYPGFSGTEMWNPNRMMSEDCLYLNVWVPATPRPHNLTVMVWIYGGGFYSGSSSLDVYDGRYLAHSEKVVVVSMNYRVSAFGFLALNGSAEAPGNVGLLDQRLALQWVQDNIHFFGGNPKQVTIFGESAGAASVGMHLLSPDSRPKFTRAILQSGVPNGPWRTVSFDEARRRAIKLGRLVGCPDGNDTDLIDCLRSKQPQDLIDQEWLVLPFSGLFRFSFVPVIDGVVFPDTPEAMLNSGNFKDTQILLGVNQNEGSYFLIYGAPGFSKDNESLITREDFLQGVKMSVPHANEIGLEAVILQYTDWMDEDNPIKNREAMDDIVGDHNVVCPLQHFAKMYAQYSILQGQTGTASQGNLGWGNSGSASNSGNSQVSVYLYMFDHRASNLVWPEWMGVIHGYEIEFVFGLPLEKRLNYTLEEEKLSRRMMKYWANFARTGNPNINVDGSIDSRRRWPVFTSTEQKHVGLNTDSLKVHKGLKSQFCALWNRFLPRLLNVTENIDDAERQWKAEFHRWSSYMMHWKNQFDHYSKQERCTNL

T1 sequence (P56817 46-457): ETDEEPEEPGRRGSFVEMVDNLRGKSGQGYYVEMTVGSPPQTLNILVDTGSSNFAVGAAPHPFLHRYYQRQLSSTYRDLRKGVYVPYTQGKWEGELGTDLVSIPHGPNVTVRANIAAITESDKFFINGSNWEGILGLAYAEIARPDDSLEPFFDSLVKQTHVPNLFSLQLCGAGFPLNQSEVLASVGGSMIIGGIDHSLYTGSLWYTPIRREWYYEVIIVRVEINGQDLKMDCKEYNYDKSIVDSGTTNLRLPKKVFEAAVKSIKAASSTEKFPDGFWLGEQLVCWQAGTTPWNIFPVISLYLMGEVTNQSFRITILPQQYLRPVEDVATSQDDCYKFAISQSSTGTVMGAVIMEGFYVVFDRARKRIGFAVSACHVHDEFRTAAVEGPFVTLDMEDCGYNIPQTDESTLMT

Compound | IC50 (beta-secretase (BACE-1)) [µM] | IC50 [1] [µM]
CCOc1cc(C(=O)O)c(C(=O)CCc2ccccc2)c(N(C)C)c1 [F9, 3-(dimethylamino)-5-ethoxy-2-(3-phenylpropanoyl)benzoic acid] | 1.85 ± 0.33 | 30 ± 1.24
CN(C)c1cccc(CCC(=O)c2cc(O)ccc2N(C)C)c1 [F24, 1-(2-(dimethylamino)-5-hydroxyphenyl)-3-(3-(dimethylamino)phenyl)propan-1-one] | 3.52 ± 0.77 | 80.5 ± 3.07
